Assay results: patent US20250084101A1, “COMPOUND FOR INHIBITING AND DEGRADING IRAK4, AND PHARMACEUTICAL COMPOSITION AND PHARMACEUTICAL APPLICATION THEREOF” (XIZANG HAISCO PHARMACEUTICAL CO., LTD., priority 2022, published 2025)
Where a name gives a salt, the structure may show the parent alone. Read-outs that look alike come from different tables or passages of the source.

Legend:
IRAK4 protein = molecular target: T1, IRAK4 protein (Homo sapiens, UniProt Q9NWZ3); test: IRAK4 degradation activity in hPBMC cells (24 hours); format: cell-based; settings: for Remaining IRAK4 protein IRAK4%: 100 nM, relative to vehicle control
T1 construct: endogenous in cells; host or cells: human peripheral blood mononuclear cells (hPBMC) from healthy volunteers
T1 sequence (Q9NWZ3 1-460): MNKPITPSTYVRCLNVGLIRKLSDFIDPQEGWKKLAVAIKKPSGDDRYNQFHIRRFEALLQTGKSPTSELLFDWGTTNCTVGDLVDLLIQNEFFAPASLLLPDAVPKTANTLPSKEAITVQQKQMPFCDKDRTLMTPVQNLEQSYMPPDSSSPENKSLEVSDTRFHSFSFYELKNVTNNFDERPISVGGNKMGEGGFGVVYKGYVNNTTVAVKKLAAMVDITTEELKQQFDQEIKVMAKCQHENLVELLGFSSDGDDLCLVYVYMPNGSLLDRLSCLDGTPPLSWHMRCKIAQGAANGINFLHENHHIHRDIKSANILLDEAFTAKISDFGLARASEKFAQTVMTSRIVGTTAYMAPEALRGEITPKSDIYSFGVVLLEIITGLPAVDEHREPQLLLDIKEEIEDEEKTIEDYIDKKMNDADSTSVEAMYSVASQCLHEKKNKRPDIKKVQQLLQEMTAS
Description: hPBMC cells are human peripheral blood mononuclear cells. Peripheral venous blood was taken from healthy volunteers, and hPBMCs were isolated using Ficoll density gradient centrifugation (Ficoll-Paque™ PLUS 1.077, GE, Cat. 17-1140-02). Culture conditions: RPMI-1640+10% FBS+1% penicillin-streptomycin solution. The cells were cultured in an incubator at 37° C. and 5% CO2. The cells were plated in a 24-well plate at 1×10^6 cells/well. After plating, compounds at different concentrations were added, and the cells were cultured in an incubator at 37° C. and 5% CO2 for 24 hours. After the culture was completed, the cells were collected, and RIPA lysis buffer (beyotime, Cat. P0013B) was added. The cells were lysed on ice for 20 minutes, and then centrifuged at 12000 rpm at 4° C. for 10 minutes. The protein sample of the supernatant was collected, the protein was quantified using a BCA kit (Beyotime, Cat. P0009), and then the protein was diluted to 1 mg/mL. The expression of IRAK4 (CST, Cat. 4363S) and the internal reference cofilin (CST, Cat. 5175S) were detected using a fully automated western blot quantitative analyzer (Proteinsimple). The expression level of IRAK4 relative to the internal reference was calculated using compass software. The remaining IRAK4 protein IRAK4% relative to the vehicle control group at different doses was calculated using formula (1), and the IRAK4 protein degradation relative to the vehicle control group at different doses was calculated using formula (2), where IRAK4administration was the expression level of IRAK4 in the administration groups at different doses, and IRAK4vehicle was the expression level of IRAK4 in the vehicle control group. An IRAK4 degradation-drug concentration curve was fit using Graphpad Prism 8 software, and the DC50 was calculated.

[1] = Pharmacokinetic test in mice; format: in vivo, ICR mice; settings: plasma, i.g. 10 mg/kg
Description: Experimental animals: Male ICR mice, about 25 g, 6 mice/compound, purchased from Chengdu Ddossy Experimental Animals Co., Ltd.
Test design: On the day of the experiment, 6 ICR mice were randomly grouped according to their body weights. The animals were fasted with water available for 12 to 14 h one day before the administration, and were fed 4 h after the administration.
• Vehicle for intravenous administration: 5% DMA+5% Solutol+90% Saline; • Vehicle for intragastric administration: 5% DMSO+30% PEG400+65% (20% SBE-CD); (DMSO: dimethyl sulfoxide; DMA: dimethylacetamide; Solutol: polyethylene glycol-15-hydroxystearate; PEG400: polyethylene glycol 400; SBE-β-CD: sulfobutyl-β-cyclodextrin; Saline: physiological saline)
Before and after the administration, 0.15 mL of blood was taken from the orbit of the animals under isoflurane anesthesia and placed in an EDTAK2 centrifuge tube. The blood was centrifuged at 5000 rpm and 4° C. for 10 min to collect plasma. The blood collection time points for the intravenous administration group and intragastric administration group were 0 min, 5 min, 15 min, 30 min, 1 h, 2 h, 4 h, 7 h and 24 h. Before analysis and detection, all samples were stored at −60° C. The samples were analyzed quantitatively by LC-MS/MS.

[2] = molecular target: T2, hERG potassium ion channel (Homo sapiens, UniProt Q12809); test: Effect on hERG potassium ion channel (manual patch-clamp, CHO cells); format: cell-based; settings: CHO cells stably expressing hERG, whole cell patch-clamp
T2 construct: expressed in transfected cells; host or cells: CHO (Chinese hamster ovary) cells stably expressing hERG
T2 sequence (Q12809 whole entry): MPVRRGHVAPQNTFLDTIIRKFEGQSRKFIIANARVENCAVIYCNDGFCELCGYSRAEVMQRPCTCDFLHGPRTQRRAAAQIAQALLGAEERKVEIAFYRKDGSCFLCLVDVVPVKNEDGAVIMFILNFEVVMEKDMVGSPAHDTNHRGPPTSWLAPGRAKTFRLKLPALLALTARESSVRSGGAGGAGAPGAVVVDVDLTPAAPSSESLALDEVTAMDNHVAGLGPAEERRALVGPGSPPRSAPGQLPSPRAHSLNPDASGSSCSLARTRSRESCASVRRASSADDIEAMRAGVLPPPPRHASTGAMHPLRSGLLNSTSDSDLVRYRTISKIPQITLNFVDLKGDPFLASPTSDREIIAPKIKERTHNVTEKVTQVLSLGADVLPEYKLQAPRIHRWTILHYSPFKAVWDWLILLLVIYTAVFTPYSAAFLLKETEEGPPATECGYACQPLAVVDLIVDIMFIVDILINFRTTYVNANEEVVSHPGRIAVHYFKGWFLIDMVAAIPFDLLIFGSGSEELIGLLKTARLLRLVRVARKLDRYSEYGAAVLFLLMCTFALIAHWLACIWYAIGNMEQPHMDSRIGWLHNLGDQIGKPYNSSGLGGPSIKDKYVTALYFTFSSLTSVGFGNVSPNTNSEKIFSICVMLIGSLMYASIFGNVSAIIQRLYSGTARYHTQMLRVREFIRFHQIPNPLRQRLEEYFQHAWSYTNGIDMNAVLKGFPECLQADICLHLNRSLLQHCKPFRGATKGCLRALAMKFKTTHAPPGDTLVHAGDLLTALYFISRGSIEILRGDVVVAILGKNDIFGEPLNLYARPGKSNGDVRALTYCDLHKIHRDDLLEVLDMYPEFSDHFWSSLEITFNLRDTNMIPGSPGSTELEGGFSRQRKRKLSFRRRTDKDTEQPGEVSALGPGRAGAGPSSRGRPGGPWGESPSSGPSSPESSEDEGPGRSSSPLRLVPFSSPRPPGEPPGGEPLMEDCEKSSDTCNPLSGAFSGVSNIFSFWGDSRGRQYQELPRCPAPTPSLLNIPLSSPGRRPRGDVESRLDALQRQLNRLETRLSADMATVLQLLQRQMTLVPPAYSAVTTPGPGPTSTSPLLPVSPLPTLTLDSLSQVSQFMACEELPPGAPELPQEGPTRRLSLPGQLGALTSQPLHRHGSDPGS
Text: Experimental platform: electrophysiological manual patch-clamp system
Cell line: Chinese hamster ovary (CHO) cell line stably expressing hERG potassium ion channel
Experimental method: In CHO (Chinese Hamster Ovary) cells stably expressing hERG potassium channel, whole cell patch-clamp technique was used to record hERG potassium channel current at room temperature. The glass microelectrode was made of a glass electrode blank (BF150-86-10, Sutter) by a puller. The tip resistance after filling the liquid in the electrode was about 2-5 MQ. The glass microelectrode can be connected to the patch-clamp amplifier by inserting the glass microelectrode into an amplifier probe. The clamping voltage and data recording were controlled and recorded by the pClamp 10 software through a computer. The sampling frequency was 10 kHz, and the filtering frequency was 2 kHz. After the whole cell records were obtained, the cells were clamped at −80 mV, and the step voltage that induced the hERG potassium current (lhERG) was depolarized from −80 mV to +20 mV for 2 s, then repolarized to −50 mV, and returned to −80 mV after 1 s. This voltage stimulation was given every 10 s, and the administration process was started after the hERG potassium current was confirmed to be stable (at least 1 minute). The compound was administered for at least 1 minute at each test concentration, and at least 2 cells (n≥2) were tested at each concentration.
Data processing: Data analysis processing was carried out by using pClamp 10, GraphPad Prism 5 and Excel software. The inhibition degree of hERG potassium current (peak value of hERG tail current induced at −50 mV) at different compound concentrations was calculated by the following formula:
[formula] • where Inhibition % represents the percentage of inhibition of hERG potassium current by the compound, and l and lo represent the amplitude of hERG potassium current after and before the administration, respectively.
Compound IC50 was calculated using GraphPad Prism 5 software by fitting according to the following equation:
[formula] • where X represents the Log value of the tested concentration of the test sample, Y represents the inhibition percentage at the corresponding concentration, and Bottom and Top represent the minimum and maximum inhibition percentage, respectively.

[3] = male, ICR, mouse, po, 10 mg/kg, read-out: AUC0-t
[4] = read-out: IC50 for inhibitory effect on hERG potassium channel current

| SMILES | Remaining IRAK4 protein IRAK4% (IRAK4 protein) | IC50 [2, 4] | DC50 (IRAK4 protein) | other results |
| --- | --- | --- | --- | --- |
| [2H]C([2H])([2H])n1nc(C2CCC(=O)NC2=O)c2cccc(C#CCOC3CCN(C[C@H]4CC[C@H](n5cc(NC(=O)c6cnn7ccc(N8C[C@H]9C[C@@H]8CO9)nc67)c(C(F)F)n5)CC4)CC3)c21 (relative stereo) [Compound 7, Trans-5-((1R,4R)-2-oxa-5-azabicyclo[2.2.1]heptan-5-yl)-N-(3-(difluoromethyl)-1-(4-((4-((3-(3-(2,6-dioxopiperidin-3-yl)-1-(methyl-d3)-1H-indazol-7-yl)prop-2-yn-1-yl)oxy)piperidin-1-yl)methyl)cyclohexyl)-1H-pyrazol-4-yl) pyrazolo[1,5-a]pyrimidine-3-carboxamide] | A (A ≤ 10%) | – | – | – |
| Cn1nc(C2CCC(=O)NC2=O)c2cccc(C#CCO[C@@H]3CCN(C[C@H]4CC[C@H](n5cc(NC(=O)c6cnn7ccc(N8C[C@H]9C[C@@H]8CO9)nc67)c(C(F)F)n5)CC4)C[C@@H]3F)c21 (stereo partly shown) [Compound 10] | A (A ≤ 10%) | > 30 µM | – | AUC(0-t) [1, 3]: 17500 ± 5260 ng·h/mL |
| CCn1nc(C2CCC(=O)NC2=O)c2cccc(C#CCOC3CCN(C[C@H]4CC[C@H](n5cc(NC(=O)c6cnn7ccc(N8C[C@H]9C[C@@H]8CO9)nc67)c(C(F)F)n5)CC4)CC3)c21 (stereo partly shown) [Compound 6] | A (A ≤ 10%) | – | – | – |
| CC(C)n1nc(C2CCC(=O)NC2=O)c2cccc(C#CCOC3CCN(C[C@H]4CC[C@H](n5cc(NC(=O)c6cnn7ccc(N8C[C@H]9C[C@@H]8CO9)nc67)c(C(F)F)n5)CC4)CC3)c21 (single isomer, unassigned) [Chiral isomer 1 of compound 8] | B (10% < B ≤ 50%) | – | – | – |
| CN(C[C@H]1CC[C@H](n2cc(NC(=O)c3cnn4ccc(N5C[C@H]6C[C@@H]5CO6)nc34)c(C(F)F)n2)CC1)C1CCN(Cc2cccc3c(C4CCC(=O)NC4=O)nn(C)c23)CC1 (stereo partly shown) [Compound 1] | B (10% < B ≤ 50%) | – | – | – |
| Cn1nc(C2CCC(=O)NC2=O)c2cccc(C#CCO[C@@H]3CCN(C[C@H]4CC[C@H](n5cc(NC(=O)c6cnn7ccc(N8CCO[C@@H](CO)C8)nc67)c(C(F)F)n5)CC4)C[C@@H]3F)c21 (single isomer, unassigned) [Chiral isomer 1 of compound 19] | – | > 20 µM | < 0.02 µM | AUC(0-t) [1]: 13407 ± 4034 ng·h/mL |
| Cn1nc(C2CCC(=O)NC2=O)c2cccc(C#CCO[C@H]3CCN(C[C@H]4CC[C@H](n5cc(NC(=O)c6cnn7ccc(N8CCO[C@H](CO)C8)nc67)c(C(F)F)n5)CC4)C[C@H]3F)c21 (single isomer, unassigned) [Chiral isomer 1 of compound 25] | – | > 40 µM | < 0.02 µM | – |
| Cn1nc(C2CCC(=O)NC2=O)c2cccc(C#CCO[C@@H]3CCN(C[C@H]4CC[C@H](n5cc(NC(=O)c6cnn7ccc(N8CCO[C@@H](CO)C8)nc67)c(C(F)F)n5)CC4)C[C@@H]3F)c21 (single isomer, unassigned) [Chiral isomer 2 of compound 19] | – | – | < 0.02 µM | – |
| Cn1nc(C2CCC(=O)NC2=O)c2cccc(C#CCO[C@H]3CCN(C[C@H]4CC[C@H](n5cc(NC(=O)c6cnn7ccc(N8CCO[C@H](CO)C8)nc67)c(C(F)F)n5)CC4)C[C@H]3F)c21 (single isomer, unassigned) [Chiral isomer 2 of compound 25] | – | > 40 µM | < 0.02 µM | – |
| Cn1nc(C2CCC(=O)NC2=O)c2cccc(C#CCO[C@@H]3CCN(C[C@H]4CC[C@H](n5cc(NC(=O)c6cnn7ccc(N8C[C@H]9C[C@@H]8CO9)nc67)c(C(F)F)n5)CC4)C[C@H]3F)c21 (stereo partly shown) [Compound 13] | B (10% < B ≤ 50%) | – | – | – |
| COC[C@H]1CN(c2ccn3ncc(C(=O)Nc4cn([C@H]5CC[C@H](CN6CC[C@H](OCC#Cc7cccc8c(C9CCC(=O)NC9=O)nn(C)c78)[C@H](F)C6)CC5)nc4C(F)F)c3n2)CCO1 (single isomer, unassigned) [Chiral isomer 2 of compound 23] | – | > 40 µM | < 0.02 µM | – |
| Cn1nc(C2CCC(=O)NC2=O)c2cccc(C#CCO[C@H]3CCN(C[C@H]4CC[C@H](n5cc(NC(=O)c6cnn7ccc(N8C[C@H]9C[C@@H]8CO9)nc67)c(C(F)F)n5)CC4)C[C@@H]3F)c21 (stereo partly shown) [Compound 12] | B (10% < B ≤ 50%) | > 30 µM | – | – |
| Cn1nc(C2CCC(=O)NC2=O)c2cccc(C#CCO[C@H]3CCN(C[C@H]4CC[C@H](n5cc(NC(=O)c6cnn7ccc(N8CCO[C@@H](CO)C8)nc67)c(C(F)F)n5)CC4)C[C@H]3F)c21 (single isomer, unassigned) [Chiral isomer 1 of compound 24] | – | > 40 µM | < 0.02 µM | – |
| Cn1nc(C2CCC(=O)NC2=O)c2cccc(C#CCO[C@@H]3CCN(C[C@H]4CC[C@H](n5cc(NC(=O)c6cnn7ccc(N8CCO[C@@H](CO)C8)nc67)c(C(F)F)n5)CC4)C[C@@H]3F)c21 (single isomer, unassigned) [Trifluoroacetate salt of chiral isomer 2 of compound 19] | – | > 40 µM | – | AUC(0-t) [1, 3]: 8300 ± 2850 ng·h/mL |
| O=C1CCC(c2nn(C3CC3)c3c(C#CCOC4CCN(C[C@H]5CC[C@H](n6cc(NC(=O)c7cnn8ccc(N9C[C@H]%10C[C@@H]9CO%10)nc78)c(C(F)F)n6)CC5)CC4)cccc23)C(=O)N1 (stereo partly shown) [Compound 16] | A (A ≤ 10%) | – | – | – |
| Cn1c(=O)n(C2CCC(=O)NC2=O)c2cccc(C#CCOC3CCN(C[C@H]4CC[C@H](n5cc(NC(=O)c6cnn7ccc(N8C[C@H]9C[C@@H]8CO9)nc67)c(C(F)F)n5)CC4)CC3)c21 (stereo partly shown) [Control compound 1, reference compound] | – | – | – | AUC(0-t) [1, 3]: 2320 ± 146 ng·h/mL; IC50 ([2]; IC50 for inhibitory effect on hERG potassium channel current): 0.642 µM |
| Cn1nc(C2CCC(=O)NC2=O)c2cccc(C#CCOC3CCN(C[C@H]4CC[C@H](n5cc(NC(=O)c6cnn7cc(F)c(N8C[C@H]9C[C@@H]8CO9)nc67)c(C(F)F)n5)CC4)CC3)c21 (stereo partly shown) [Trifluoroacetate salt of compound 15] | B (10% < B ≤ 50%) | – | – | – |
